Like-named read-outs stand apart in the source and are kept apart here.
What was measured:
(Dα1)3(β2)2 nAChR = molecular target: T1, (Dα1)3(β2)2 nAChR (Drosophila melanogaster, UniProt P09478+P09484); assay: two-electrode voltage clamp, Xenopus oocytes, agonist concentration-response; format: cell-based
T1 construct: gene nAChRalpha1; fruitfly Dα1 and chicken β2 cDNAs in pcDNA3.1(+), cRNA mixed 5:1 (Dα1:β2), Xenopus laevis oocytes; hybrid pentamer with Dα1/Dα1 and Dα1/β2 interfaces
From the text: two-electrode voltage clamp, Xenopus oocytes, agonist concentration-response on (Dα1)3(β2)2 nAChR

(Dα1)2(β2)3 nAChR = molecular target: T2, (Dα1)2(β2)3 nAChR (Drosophila melanogaster, UniProt P09478+P09484); assay: as above; format: cell-based
T2 construct: gene nAChRalpha1; fruitfly Dα1 and chicken β2 cDNAs in pcDNA3.1(+), cRNA mixed 1:5 (Dα1:β2), Xenopus laevis oocytes; hybrid pentamer with Dα1/β2 interfaces
From the text: two-electrode voltage clamp, Xenopus oocytes, agonist concentration-response on (Dα1)2(β2)3 nAChR

T1 sequence (P09478 22-567): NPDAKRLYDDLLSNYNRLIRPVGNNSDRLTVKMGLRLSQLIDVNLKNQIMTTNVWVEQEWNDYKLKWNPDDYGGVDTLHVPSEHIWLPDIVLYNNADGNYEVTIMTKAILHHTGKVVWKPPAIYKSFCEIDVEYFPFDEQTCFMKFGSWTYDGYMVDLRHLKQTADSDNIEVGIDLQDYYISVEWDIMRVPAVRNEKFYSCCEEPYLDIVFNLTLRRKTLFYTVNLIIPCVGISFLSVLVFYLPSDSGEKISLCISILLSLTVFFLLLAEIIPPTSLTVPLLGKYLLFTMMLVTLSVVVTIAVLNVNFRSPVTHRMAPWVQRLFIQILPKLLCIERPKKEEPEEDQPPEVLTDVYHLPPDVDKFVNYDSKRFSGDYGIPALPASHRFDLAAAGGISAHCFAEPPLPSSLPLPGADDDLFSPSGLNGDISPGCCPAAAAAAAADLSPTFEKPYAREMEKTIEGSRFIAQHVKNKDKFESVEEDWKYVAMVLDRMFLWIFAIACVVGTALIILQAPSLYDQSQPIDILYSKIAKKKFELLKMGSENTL
T1 sequence (P09484 19-491): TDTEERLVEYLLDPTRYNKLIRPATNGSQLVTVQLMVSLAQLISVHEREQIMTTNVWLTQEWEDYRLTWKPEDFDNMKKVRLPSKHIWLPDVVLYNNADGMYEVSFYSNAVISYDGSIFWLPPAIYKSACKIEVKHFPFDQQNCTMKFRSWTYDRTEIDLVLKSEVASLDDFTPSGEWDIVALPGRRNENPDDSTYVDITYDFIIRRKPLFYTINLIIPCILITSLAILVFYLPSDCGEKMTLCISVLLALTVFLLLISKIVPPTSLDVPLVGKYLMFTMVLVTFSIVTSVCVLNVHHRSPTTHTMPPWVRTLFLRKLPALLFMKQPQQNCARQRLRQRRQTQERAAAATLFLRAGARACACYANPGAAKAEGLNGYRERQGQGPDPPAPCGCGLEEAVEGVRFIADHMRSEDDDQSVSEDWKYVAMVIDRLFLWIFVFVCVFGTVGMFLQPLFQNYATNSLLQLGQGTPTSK
T2 sequence (P09478 22-567): as the sequence (P09478 22-567) above
T2 sequence (P09484 19-491): as the sequence (P09484 19-491) above

## N#C/N=C1\SCCN1Cc1ccc(Cl)nc1 [thiacloprid]
(Dα1)3(β2)2 nAChR; read-out: Thiacloprid / (Dα1)3(β2)2 / pEC50 (converted)
  EC50: 45.7 nM
(Dα1)2(β2)3 nAChR; read-out: Thiacloprid / (Dα1)2(β2)3 / pEC50 (converted)
  EC50: 24.5 nM

## CC(=O)OCC[N+](C)(C)C [ACh]
(Dα1)3(β2)2 nAChR; read-out: (Dα1)3(β2)2 / pEC50 (converted)
  EC50: 155 nM
(Dα1)2(β2)3 nAChR; read-out: (Dα1)2(β2)3 / pEC50 (converted)
  EC50: 162 nM

## O=[N+]([O-])NC1=NCCN1Cc1ccc(Cl)nc1 [imidacloprid]
(Dα1)3(β2)2 nAChR; read-out: Imidacloprid / (Dα1)3(β2)2 / pEC50 (converted)
  EC50: 162 nM
(Dα1)2(β2)3 nAChR; read-out: Imidacloprid / (Dα1)2(β2)3 / pEC50 (converted)
  EC50: 112 nM
